Measured values: the supplement of paper PMC4862054

What was measured:
CAL-120 [1] = assay: drug sensitivity score (DSS), CellTox Green (DSS (AUC-based score)); higher = stronger drug effect (viability inhibition or cytotoxicity); extreme values may be limits of the assay; details: incubation time: 72 h
Method in brief: (§1)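 The drug sensitivity score was computed from the area under the fitted dose-response curve. Breast cancer cell lines in 20 µl suspension went into 384-well plates holding compound at 5 concentrations (10-fold steps over a 10,000-fold, compound-specific range) for 72 h of incubation. CellTox Green fluorescence (485/520 nm) was read before CellTiter-Glo luminescence, the latter after 10 min at room temperature, and each plate was normalised to 0.1 % DMSO and a positive kill control.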

CAL-148 [2] = assay: as above; details: incubation time: 72 h
Method in brief: as §1

HDQ-P1 [3] = assay: drug sensitivity score (DSS), CellTiter-Glo (DSS (AUC-based score)); higher = stronger drug effect (viability inhibition or cytotoxicity); extreme values may be limits of the assay; details: incubation time: 72 h
Method in brief: as §1

BT-474 = assay: as above; details: incubation time: 72 h
Method in brief: as §1

MDA-MB-436 = assay: as above; details: incubation time: 72 h
Method in brief: as §1

MCF-10A = assay: as above; details: incubation time: 72 h
Method in brief: as §1

Hs578T = assay: as above; details: incubation time: 72 h
Method in brief: as §1

CAL-120 [4] = assay: as above; details: incubation time: 72 h
Method in brief: as §1

BT-549 = assay: as above; details: incubation time: 72 h
Method in brief: as §1

HCC1143 [5] = assay: as above; details: incubation time: 72 h
Method in brief: as §1

DU-4475 = assay: as above; details: incubation time: 72 h
Method in brief: as §1

MFM-223 = assay: as above; details: incubation time: 72 h
Method in brief: as §1

CAL-51 [6] = assay: as above; details: incubation time: 72 h
Method in brief: as §1

HCC1599 = assay: as above; details: incubation time: 72 h
Method in brief: as §1

CAL-148 [7] = assay: as above; details: incubation time: 72 h
Method in brief: as §1

MDA-MB-453 = assay: as above; details: incubation time: 72 h
Method in brief: as §1

MDA-MB-468 = assay: as above; details: incubation time: 72 h
Method in brief: as §1

HCC1937 [8] = assay: as above; details: incubation time: 72 h
Method in brief: as §1

CAL-85-1 = assay: as above; details: incubation time: 72 h
Method in brief: as §1

SK-BR-3 = assay: as above; details: incubation time: 72 h
Method in brief: as §1

MDA-MB-231 = assay: as above; details: incubation time: 72 h
Method in brief: as §1

HDQ-P1 [9] = assay: normalised viability (% of control), CellTiter-Blue; higher = more viable cells (about 100 = DMSO control); details: 10 nM; incubation time: 72 h
Protocol: (§2)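 DSRT, CellTiter-Blue viability, 72 h incubation. Signal is normalised to DMSO and benzethonium chloride controls. Value is the normalised response at dose 3.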

HCC1143 [10] = assay: as above; details: 100 nM; incubation time: 72 h
Protocol: as §2

CAL-51 [11] = assay: as above; details: 10 nM; incubation time: 72 h
Protocol: as §2

CAL-148 [12] = assay: as above; details: 10 nM; incubation time: 72 h
Protocol: as §2

HCC1937 [13] = assay: as above; details: 100 nM; incubation time: 72 h
Protocol: as §2

SMILES | drug sensitivity score (CAL-120 [1]) | drug sensitivity score (CAL-148 [2]) | drug sensitivity score (HDQ-P1 [3]) | drug sensitivity score (BT-474) | drug sensitivity score (MDA-MB-436) | drug sensitivity score (MCF-10A) | drug sensitivity score (Hs578T) | drug sensitivity score (CAL-120 [4]) | drug sensitivity score (BT-549) | drug sensitivity score (HCC1143 [5]) | drug sensitivity score (DU-4475) | drug sensitivity score (MFM-223) | drug sensitivity score (CAL-51 [6]) | drug sensitivity score (HCC1599) | drug sensitivity score (CAL-148 [7]) | drug sensitivity score (MDA-MB-453) | drug sensitivity score (MDA-MB-468) | drug sensitivity score (HCC1937 [8]) | drug sensitivity score (CAL-85-1) | drug sensitivity score (SK-BR-3) | drug sensitivity score (MDA-MB-231) | normalised viability (HDQ-P1 [9]) [%] | normalised viability (HCC1143 [10]) [%] | normalised viability (CAL-51 [11]) [%] | normalised viability (CAL-148 [12]) [%] | normalised viability (HCC1937 [13]) [%]
CCn1c(-c2nonc2N)nc2cnc(Oc3cccc(NC(=O)c4ccc(OCCN5CCOCC5)cc4)c3)cc21 | 0 | 0 | 1.87 | 5.28 | 1.31 | 6.73 | 6.04 | 6.49 | 5.62 | 0 | 0.276 | 0 | 4.84 | 0 | 2.07 | 0 | 0 | 0 | 0 | 4.64 | 3.83 |  |  |  |  | 
CNC(=O)c1cccc(-c2ccc3c(N4CCOC[C@@H]4C)nc(N4CCOC[C@@H]4C)nc3n2)c1 [AZD2014] | 0 | 11 | 14.8 | 8.78 | 11.1 | 10.3 | 11.4 | 14.9 | 15.3 | 12.7 | 7.74 | 15.7 | 17.4 | 0.92 | 13.8 | 13.5 | 11.4 | 9.48 | 13.2 | 18.4 | 8.36 |  |  |  |  | 
Nc1cc(C(F)(F)F)c(-c2cc(N3CCOCC3)nc(N3CCOCC3)n2)cn1 [Buparlisib] | 0 | 0 | 6.14 | 3.23 | 0 | 9.62 | 1.39 | 2.39 | 7.05 | 1.75 | 1.54 | 10 | 7.02 | 0 | 0 | 0 | 6.3 | 3.29 | 0 | 0 | 3 |  |  |  |  | 
CNC(=O)c1ccc(N2C(=S)N(c3ccc(C#N)c(C(F)(F)F)c3)C(=O)C23CCC3)cc1F [RD162] | 0 | 0 | 0 | 3.77e-05 | 0 | 0 | 0 | 0 | 0 | 0 | 0 | 0 | 0 | 0 | 0 | 0 | 0 | 0 | 0 | 0 | 0 |  |  |  |  | 
Cc1cc(Nc2cc(CN3CCOCC3)c3nc(C)c(Cc4ccc(Cl)cc4F)n3n2)n[nH]1 [Gandotinib] | 0 | 0 | 5.01 | 6.22 | 4.83 | 3.4 | 6.39 | 3.77 | 6.71 | 2.62 | 0.384 | 5.57 | 9.68 | 0 | 0 | 0 | 9.64 | 1.28 | 4.82 | 3.64 | 7.43 |  |  |  |  | 
COc1cc2c(NC3CCN(C(C)C)CC3)nc(N3CCC(F)(F)CC3)nc2cc1OCCCN1CCCC1 [UNC0642] | 4.13 | 2.77 | 0.93 | 1.75 | 4.42 | 3.66 | 0 | 0 | 0 | 0 | 0 | 3.31 | 0 | 0 | 3.63 | 5.58 | 7.75 | 1.97 | 5.86 | 2.71 | 3.72 |  |  |  |  | 
CNC(=O)c1ccc(N2C(=S)N(c3ccc(C#N)c(C(F)(F)F)c3)C(=O)C2(C)C)cc1F [Enzalutamide] | 0 | 0 | 0 | 0 | 0 | 0 | 0 | 0 | 0 | 0 | 0 | 0 | 6.69 | 0 | 0 | 0.159 | 0 | 0 | 0 | 0 | 0 |  |  |  |  | 
COC(=O)c1ccc2c(c1)NC(=O)/C2=C(\Nc1ccc(N(C)C(=O)CN2CCN(C)CC2)cc1)c1ccccc1 [BIBF 1120] |  |  |  |  |  |  |  |  |  |  |  |  |  |  |  |  |  |  |  |  |  | 122 | 88.2 | 104 | 100 | 115
